Data on 34 molecules can be found in US6967196B1, “Sulfonamide compounds and uses thereof” (Bristol-Myers Squibb Company, priority 1999, dated 2005).

Where a name gives a salt, the structure may show the parent alone.

For one experiment, the system named is amyloid β production in transfected H4 (human neuroglioma) cells stably expressing APP constructs. The experiment is described as follows: In vitro cell-based assay of inhibitors of amyloid β production (ELISA). The note with it: Homo sapiens, 16 h, transfected H4 cells expressing APP, approximately 16 hours incubation, amyloid β in medium by ELISA; read-out: ACTIVITY (IC50, inhibition of amyloid β production). The procedure, abridged: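 Aβ secreted into the medium was determined by a two-antibody ELISA specific for the Aβ C-terminus, calibrated with known Aβ amounts. Before that, compounds (10-100 μM initially) were left on the cells for roughly 16 hours.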
With `CC1CCCCN1CCCNC(=O)[C@@H](C)N(c1cc(Cl)ccc1F)S(=O)(=O)c1ccc(Cl)cc1` (stereo partly shown) [Example 1340], the IC50 was above 0.5 µM.
Still for that read-out and setting: as for `CC1CCCC(NC(=O)[C@@H](C)N(c2cc(Cl)ccc2F)S(=O)(=O)c2ccc(Cl)cc2)C1` (stereo partly shown) [Example 1347], the figure is 0.1 to 0.5 µM; as for `C[C@H](C(=O)NC(C)(C)CO)N(c1cc(Cl)ccc1F)S(=O)(=O)c1ccc(Cl)cc1` [Example 1344], 0.1 to 0.5 µM.
Still for that read-out and setting: the figure for `C[C@H](C(=O)NCc1ccncc1)N(c1cc(Cl)ccc1F)S(=O)(=O)c1ccc(Cl)cc1` [Example 1313] is 0.1 to 0.5 µM; for `C[C@H](C(=O)NCc1ccco1)C(c1cc(Cl)ccc1F)S(=O)(=O)c1ccc(Cl)cc1` (stereo partly shown) [Example 1300] it is 0.1 to 0.5 µM.

Staying with this experiment, now noted: Homo sapiens, 16 h, transfected H4 cells stably expressing APP constructs; approximately 16 hours incubation; amyloid β in medium by ELISA; read-out: ACTIVITY (IC50, inhibition of amyloid β production).
As to `C[C@H](CCCS(=O)(=O)N(C)C)N(c1cc(Cl)ccc1Cl)S(=O)(=O)c1ccc(Cl)cc1` [Example 1201, 4-chloro-N-[2,5-dichlorophenyl]-N-[4-[(dimethylamino)sulfonyl]-1(R)-methylbutyl]benzenesulfonamide], the IC50 was at most 0.025 µM.
Take `C[C@H](CCCNC(=O)OCc1ccccc1)N(c1cc(Cl)ccc1Cl)S(=O)(=O)c1ccc(Cl)cc1` [Example 1155, 4-chloro-N-(2,5-dichlorophenyl)-N-[4-[[(benzoxy)carbonyl]amino]-1-methylbutyl]benzenesulfonamide]: the IC50 lay within 0.1 to 0.5 µM.
As for `COC(=O)C1SCCN1CCC[C@@H](C)N(c1cc(Cl)ccc1Cl)S(=O)(=O)c1ccc(Cl)cc1` (stereo partly drawn) [Example 1105, 4-chloro-N-(2,5-dichlorophenyl)-N-[4-(2-methoxycarbonyl-3-thiazolidinyl)-1(R)-methylbutyl]benzenesulfonamide], the IC50 is at most 0.025 µM.
Still for that read-out and setting: as for `C[C@H](CCCS(=O)(=O)N1CCCC1)N(c1cc(Cl)ccc1Cl)S(=O)(=O)c1ccc(Cl)cc1` [Example 1204, 4-chloro-N-[2,5-dichlorophenyl]-N-[4-[(1-pyrrolidinyl)sulfonyl]-1(R)-methylbutyl]benzenesulfonamide], the figure is at most 0.025 µM.
Still for that read-out and setting: the figure for `C[C@H](CCCS(=O)(=O)N1CCCC1)N(c1cc(Cl)ccc1F)S(=O)(=O)c1ccc(Cl)cc1` [Example 1205, 4-chloro-N-(5-chloro-2-fluorophenyl)-N-[4-[(1-pyrrolidinyl)sulfonyl]-1(R)-methylbutyl]benzenesulfonamide] is at most 0.025 µM.

The experiment is the same for the next values; noted with them: Homo sapiens, 16 h, transfected H4 cells stably expressing APP; approximately 16 hours incubation; amyloid β in medium by ELISA; Table B; read-out: ACTIVITY (IC50, inhibition of amyloid β production).
Consider `C[C@H](c1ccccc1CCC(=O)NCc1ccco1)N(c1cc(F)ccc1F)S(=O)(=O)c1ccc(Cl)cc1` [Example 404, 3-[2-((1R)-1-{[(4-chlorophenyl)sulfonyl]-2,5-difluoroanilino}ethyl)phenyl]-N-(2-furylmethyl)propanamide], for which the IC50 was in the range of 0.05 to 0.1 µM.

The same experiment, now with this note: Homo sapiens, 16 h, transfected H4 cells stably expressing APP; approximately 16 hours incubation; amyloid β in medium by ELISA; read-out: ACTIVITY (IC50, inhibition of amyloid β production).
Regarding `O=S(=O)(c1ccc(Cl)cc1)N(Cc1ccccc1OCCCN1CCCCC1)c1cc(Cl)ccc1O` [Example 887, 4-chloro-N-(5-chloro-2-hydroxyphenyl)-N-{2-[3-(1-piperidinyl)propoxy]benzyl}benzenesulfonamide hydrochloride], the IC50 was above 0.5 µM.
The same measure, in the same setting: as for `O=S(=O)(c1ccc(Cl)cc1)N(Cc1ccccc1OCCC1CCCCN1Cc1cccc(F)c1F)c1cc(F)ccc1F` (stereo not shown) [Example 933, 4-chloro-N-(2-{2-[1-(2,3-difluorobenzyl)-2-piperidinyl]ethoxy}benzyl)-N-(2,5-difluorophenyl)benzenesulfonamide], the figure is above 0.5 µM; as for `O=S(=O)(c1ccc(Cl)cc1)N(Cc1ccccc1OCCCS)c1ccccc1` [Example 1018, 4-chloro-N-phenyl-N-[2-(3-sulfanylpropoxy)benzyl]benzenesulfonamide], above 0.5 µM.
Same read-out and setting: the figure for `CC(c1ccccc1OCCCn1ccnc1)N(c1cc(F)ccc1F)S(=O)(=O)c1ccc(Cl)cc1` (stereo not shown) [Example 1046, 4-chloro-N-(2,5-difluorophenyl)-N-(1-{2-[3-(1H-imidazol-1-yl)propoxy]phenyl}ethyl)benzenesulfonamide hydrochloride] is above 0.5 µM; for `O=S(=O)(c1ccc(Cl)cc1)N(Cc1ccccc1OCCSC1CCCCC1)c1cc(F)ccc1F` [Example 850, 4-chloro-N-{2-[2-(cyclohexylsulfanyl)ethoxy]benzyl}-N-(2,5-difluorophenyl)benzenesulfonamide] it is 0.1 to 0.5 µM.

The same experiment, now with this note: Table B; transfected H4 cells stably expressing APP; approximately 16 hours incubation; amyloid β in medium by ELISA; read-out: ACTIVITY (inhibitory concentration IC50, inhibition of amyloid β production).
For `CC(=O)OCc1ccc(Cl)cc1N([C@H](C)CCCS(=O)(=O)O)S(=O)(=O)c1ccc(Cl)cc1` [Example 11], the IC50 was at most 0.025 µM.
With `C[C@H](CCCC(=O)O)N(c1cc(Cl)ccc1Cl)S(=O)(=O)c1ccc(Cl)cc1` [Example 36, (5R)-5-[(2,5-dichlorophenyl][(4-chlorophenyl)sulfonyl]-amino]hexanoic Acid], the IC50 was at most 0.025 µM.

Still in this experiment, the particulars now being: transfected H4 cells stably expressing APP constructs; approximately 16 hours incubation; amyloid β in medium by ELISA; read-out: ACTIVITY (IC50, inhibition of amyloid β production).
As to `C[C@H](COC(=O)NCCN1CCCCC1)N(c1cc(Cl)ccc1Cl)S(=O)(=O)c1ccc(Cl)cc1` [Example 1242], the IC50 is at most 0.025 µM.
On the same count and under the same terms, as for `CC(C)Oc1c(NCC[C@@H](C)N(c2cc(Cl)ccc2F)S(=O)(=O)c2ccc(Cl)cc2)c(=O)c1=O` [Example 1127, 4-chloro-N-(5-chloro-2-fluorophenyl)-N-[3-(2-isopropoxy-3,4-dioxo-1-cyclobutenyl)amine-1(R)-methylpropyl]benzenesulfonamide], the figure is 0.05 to 0.1 µM.
The same measure, in the same setting: as for `CSC1CCCN(CC[C@@H](C)N(c2cc(Cl)ccc2Cl)S(=O)(=O)c2ccc(Cl)cc2)C1` (stereo partly drawn) [Example 1142, 4-chloro-N-(2,5-dichlorophenyl)-N-[3-[(3-methylthio)-1-piperidinyl]-1(R)-methylpropyl]benzenesulfonamide], the figure is 0.1 to 0.5 µM.

The experiment is the same for the next values; noted with them: transfected H4 cells stably expressing APP; approx. 16 h incubation; amyloid β in medium by ELISA; read-out: ACTIVITY (IC50, inhibition of amyloid β production).
As for “N-{3-[2-(1-{[(4-chlorophenyl)sulfonyl]-2,5-difluoroanilino}ethyl)phenoxy]propyl}-3,4,5-trimethoxybenzamide [Example 651]”, the IC50 is 0.1 to 0.5 µM.
Regarding “N-{3-[2-(1-{[(4-chlorophenyl)sulfonyl]-2,5-difluoroanilino}ethyl)phenoxy]propyl}-N-methyl-2-naphthalenesulfonamide [Example 671]”, the IC50 is 0.1 to 0.5 µM.
The same measure, in the same setting: as for `C[C@H](C(=O)N[C@@H]1CC2CCC1C2)N(c1cc(Cl)ccc1F)S(=O)(=O)c1ccc(Cl)cc1` (stereo partly shown) [Example 627], the figure is 0.1 to 0.5 µM; as for “N-{3-[2-(1-{[(4-chlorophenyl)sulfonyl]-2,5-difluoroanilino}ethyl)phenoxy]propyl}-2,5-difluoro-N-methylbenzamide [Example 727]”, 0.1 to 0.5 µM; as for `CC(C)[C@@H](NC(=O)CCC[C@@H](C)N(c1cc(Cl)ccc1F)S(=O)(=O)c1ccc(Cl)cc1)C(=O)O` [Example 544, (R)-4-Chloro-N-(5-chloro-2-fluorophenyl)-N-[5-[N-(R)-[1-(carboxy)-2-methylpropyl]amino]-1-methyl-5-oxopentyl]benzenesulfonamide], 0.1 to 0.5 µM.
As for “N-{4-[2-(1-{[(4-chlorophenyl)sulfonyl]-2,5-difluoroanilino}ethyl)phenoxy]butyl}-2-cyclohexyl-N-ethylacetamide [Example 785]”, the IC50 lay in the range of 0.1 to 0.5 µM.
Consider `Cc1cccc(C(=O)N(C)CCCOc2ccccc2C(C)N(c2cc(F)ccc2F)S(=O)(=O)c2ccc(Cl)cc2)c1` (stereo not shown) [Example 766], for which the IC50 was in the range of 0.1 to 0.5 µM.

Staying with this experiment, now noted: transfected H4 cells stably expressing APP; approximately 16 hours incubation; amyloid β in medium by ELISA; Table B; read-out: ACTIVITY (IC50, inhibition of amyloid β production).
For the molecule `COC(=O)CCS(=O)(=O)CCc1cc(F)ccc1[C@@H](C)N(c1cc(F)ccc1F)S(=O)(=O)c1ccc(Cl)cc1` [Example 474, Methyl 3-({2-[2-((1R)-1-{[(4-chlorophenyl)sulfonyl]-2,5-difluoroanilino}ethyl)-5-fluorophenyl]ethyl}sulfonyl)propanoate], the IC50 was in the range of 0.1 to 0.5 µM.

Staying with this experiment, now noted: transfected H4 cells stably expressing APP; approximately 16 hours incubation; amyloid β in medium by ELISA; read-out: ACTIVITY (IC50, inhibition of amyloid β production).
Take “N-{2-[2-(1-{[(4-chlorophenyl)sulfonyl]-2,5-difluoroanilino}ethyl)phenoxy]ethyl}-3-cyclopentyl-N-ethylpropanamide [Example 857]”: the IC50 was in the range of 0.1 to 0.5 µM.
Still for that read-out and setting: the figure for “N-{3-[2-(1-{[(4-chlorophenyl)sulfonyl]-2,5-difluoroanilino}ethyl)phenoxy]propyl}-2,3,4,5 tetrafluorobenzamide [Example 863]” is 0.1 to 0.5 µM.
On the same count and under the same terms, as for `CC(=O)Nc1nc(C)c(S(=O)(=O)N(Cc2ccccc2OCCCN2CCCCC2)c2cc(Cl)ccc2Cl)s1` [Example 1022, N-{5-[(2,5-dichloro{2-[3-(1-piperidinyl)propoxy]benzyl}anilino)sulfonyl]-4-methyl-1,3-thiazol-2-yl}acetamide hydrochloride], the figure is above 0.5 µM; as for “N-{3-[2-({[(4-chlorophenyl)sulfonyl]-2,5-difluoroanilino}methyl)phenoxy]propyl}-3-methoxy-N-methylbenzamide [Example 814]”, 0.1 to 0.5 µM.
Same read-out and setting: as for “2,2,2-trichloro-N-{3-[2-({[(4-chlorophenyl)sulfonyl]-2,5-difluoroanilino}ethyl)phenoxy]propyl(methyl)carbamate [Example 876]”, the figure is 0.1 to 0.5 µM.
